Assay results: patent US11716994B2, “Combinations of Yersinia entomophaga and pesticides or other substances” (priority 2017, dated 2023)
Like-named read-outs stand apart in the source and are kept apart here.

Columns and labels:
Colorado potato beetle = test: Tomato leaf disk mortality assay, Y. entomophaga cells with chemical insecticides; settings: for LT50 (95% confidence intervals): isolate O43NEW 1×10^7 cfu/mL; for % Mort. Chem. / LT50 Chem.: Colorado potato beetle; for % Mort. Chem.: 5 DAT; for mortality at 120 µg/mL / mortality at 0.88 µg/mL: Leptinotarsa decemlineata, in Solanum lycopersicum, foliar
Yersinia entomophaga = test: CFU counts after exposure of Yersinia entomophaga to insecticides; assay type: cell-based; settings: 1 hour contact
Description: To test combinations of Yersinia entomophaga and pesticides for their ability to produce a pesticidal effect, or an effect on plant growth or yield, we first put various insecticides in contact with Yersinia to identify insecticides that had minimal toxicity to Yersinia entomophaga. The logic was that, if Yersinia entomophaga is to function well in combination with a chemical insecticide, the chemical insecticide would ideally have low or no effect on the ability of Yersinia entomophaga to survive, grow and/or to function.
To perform this study, we selected amounts of various insecticides based on the percent of the specific insecticide in the insecticide composition obtained from a manufacturer. We also considered the application rate of the particular insecticide, as recommended by the manufacturer. […] Generally, the 1× amount was considered possibly the lowest amount of insecticide that may be considered as an effective amount for use in the combinations disclosed herein. For each insecticide, we also used a higher amount of insecticide (generally a 5× or 10× amount).
The 1× and 5×/10× amounts of each insecticide were added to tubes along with 1 ml of ethyl acetate. The tubes were mixed until the insecticides dissolved. The tubes were left open in a fume hood overnight to allow the ethyl acetate to evaporate. The insecticide remained in the tubes, as a solid coat on the interior surface of the tubes.
A growing culture of Yersinia entomophaga, grown in LB medium, was diluted and 1 ml of the diluted culture was added to each tube containing the dried insecticide. The tubes were mixed and then left on the bench top for 1 hour. Then, 100 μl from each tube was plated onto LB plates in triplicate in CFU assays. Plates were incubated at 25° C. for 48 hours and colonies were counted.

cabbage looper [1] = system: cabbage looper
diamondback moth [2] = test: whole plant or invertebrate; settings: for LT50 (95% confidence intervals): 2nd instar diamondback moth; for mortality at 0.29 µg/mL: Plutella xylostella, foliar, Abbott's corrected
Description: (§1) These were set to dry for 1 hr.
as §1
These were set to dry for 1 hr. Cabbage disks were then dipped in either 1% Luria broth (LB) media solution (controls and thiacloprid alone treatments) or in 1% cell free filtrate from a culture Y. entomophaga isolate O24G3R (Y. entomophaga alone or in combination with thiacloprid treatments).

diamondback moth [3] = test: Leaf disk mortality assay, Y. entomophaga cells with chemical insecticides; settings: for % Mort. Chem. / LT50 Chem.: diamondback moth; for mortality at 0.29 µg/mL / mortality at 150 µg/mL: Plutella xylostella, foliar
cabbage looper [4] = settings: for LT50 Chem. / % Mort. Chem.: Cabbage Looper
Description: To produce cell free filtrates, cultures of Yersinia entomophaga grown in LB medium were centrifuged at 11,448 (g) for 10 minutes. The supernatant was decanted from the centrifuged pellet and filtered through a 0.22 μm filter. Assays were performed to determine concentrations of Yen-TC (toxin complex) using ELISA, and chitinase by measuring chitinase activity on specific substrates. […] This was done to estimate relative potency of the cell free filtrates. Insects were first pre-screened with a range of dilutions of cell free filtrates to select a concentration that provided moderate activity. […] Based on these initial screens, undiluted cell free filtrate was used for cabbage looper, fall armyworm, black cutworm, and Colorado potato beetle. […] In each of the Examples below, this is expressed as 1%.
Cabbage leaf disks were dipped in either acetone (controls and Y. entomophaga alone treatments) or novaluron (Sigma 32419) at 1.0 mg/L in acetone. These were set to dry for 1 hr. […] After the cabbage disks had dried for 1 hr, a single 3rd instar cabbage looper was added to each individual cabbage disk. A total of 20 insects were evaluate for each treatment. Insects were observed daily and scored as live or dead.

fall armyworm = test: Leaf disk mortality assay, Y. entomophaga cells with chemical insecticides
black cutworm = test: as above; settings: for % Mort. Chem. / LT50 Chem.: black cutworm
[5] = 96 h, read-out: % Mortality (4DAT)
[6] = 120 h, read-out: % Mortality (5DAT)
[7] = 144 h, read-out: % Mortality (6DAT)
[8] = 3rd instar, emamectin benzoate 0.002 mg/L, isolate O43NEW 1×10^3 cfu/mL
[9] = 3rd instar, emamectin benzoate 0.67 mg/L, isolate O23ZMJ 1×10^5 cfu/mL
[10] = 48 h, read-out: % Mortality (2DAT)
[11] = 168 h, read-out: % Mortality (7DAT)
[12] = 3rd instar, deltamethrin 0.175 mg/L, isolate O43NEW 1×10^4 cfu/mL
[13] = 3rd instar, deltamethrin 1.75 mg/L, isolate O43NEW 1×10^4 cfu/mL

Molecule: CC[S+]([O-])c1c(C#N)nn(-c2c(Cl)cc(C(F)(F)F)cc2Cl)c1N (centres unmarked) [Ethiprole]
- LT50 (95% confidence intervals) (Colorado potato beetle; 4th instar larva, ethiprole 120 mg/L): 8.90 days
- % Mort. Chem. (Colorado potato beetle; Ethiprole 120 mg/L): 21%
- LT50 Chem. (Colorado potato beetle; Ethiprole alone 120 mg/L): 8.90 days
- mortality at 120 µg/mL (Colorado potato beetle; 72 h, read-out: % Mortality (3DAT)): 21%
- mortality at 120 µg/mL (Colorado potato beetle; [5]): 21%
- mortality at 120 µg/mL (Colorado potato beetle; [6]): 21%
- mortality at 120 µg/mL (Colorado potato beetle; [7]): 37%

Molecule: Emamectin benzoate
- Average CFU (Yersinia entomophaga; 1.5 mg insecticide): 489 CFU
- Average CFU (Yersinia entomophaga; 15 mg insecticide): 459 CFU
- % Mort. Chem. (cabbage looper [1]; cabbage looper, Emamectin benzoate 0.02 mg/L, 7 DAT): 13%
- % Mortality (7DAT) (cabbage looper [1]; in vivo): 13%
- LT50 (95% confidence intervals) in days (cabbage looper [1]; in vivo): 7.61 (7.08-8.19) days
- LT50 Chem. (cabbage looper [1]; in vivo): 7.61 days
- LT50 (95% confidence intervals) in days (diamondback moth [2]; 3rd instar diamondback moth, emamectin benzoate 0.002 mg/L, O43NEW filtrate 1%, alone or combined): 6.21 (5.38-7.14) days
- LT50 Chem. (diamondback moth [2]; Diamondback moth, emamectin benzoate 0.002 mg/L): 6.21 days
- % Mortality (4DAT) (diamondback moth [3]; [8]): 5%
- LT50 (95% confidence intervals) in days (diamondback moth [3]; [8]): 6.21 (5.38-7.14) days
- % Mort. Chem. (diamondback moth [3]; Emamectin benzoate 0.002 mg/L, 4 DAT): 5%
- LT50 Chem. (diamondback moth [3]; Emamectin benzoate alone 0.002 mg/L): 6.21 days
- % Mortality (5DAT) (cabbage looper [4]; 3rd instar cabbage looper, emamectin benzoate 0.02 mg/L, O43NEW undiluted filtrate, alone or combined, 5 DAT, Abbott's corrected): 5%
- % Mortality (12DAT) (cabbage looper [4]; 3rd instar cabbage looper, emamectin benzoate 0.02 mg/L, O43NEW undiluted filtrate, alone or combined, 12 DAT, Abbott's corrected): 94%
- LT50 Chem. (cabbage looper [4]; emamectin benzoate 0.02 mg/L): 7.22 days
- % Mort. Chem. (cabbage looper [4]; emamectin benzoate 0.02 mg/L, 5 DAT): 94%
- % Mortality (4DAT) (fall armyworm; [9]): 20%
- LT50 (95% confidence intervals) in days (fall armyworm; [9]): 5.10 (4.65-5.59) days
- LT75 (95% confidence intervals) in days (fall armyworm; 3rd instar, emamectin benzoate 2 mg/L, isolate O43NEW 1×10^6 cfu/mL): 6.54 (5.76-7.44) days
- % Mort. Chem. (fall armyworm; fall armyworm, Emamectin benzoate 0.67 mg/L, 4 DAT): 20%
- LT50 Chem. (fall armyworm; fall armyworm, Emamectin benzoate alone 0.67 mg/L): 5.10 days
- LT50 Chem. (fall armyworm; fall armyworm, Emamectin benzoate alone 2 mg/L): 6.54 days

Molecule: CC1(C)[C@H](C(=O)O[C@H](C#N)c2cccc(Oc3ccccc3)c2)[C@@H]1C=C(Br)Br [Deltamethrin]
- LT50 (95% confidence intervals) (Colorado potato beetle; 3rd instar larva, deltamethrin 0.88 mg/L): 11.6 days
- % Mort. Chem. (Colorado potato beetle; Deltamethrin 0.88 mg/L): 30%
- LT50 Chem. (Colorado potato beetle; Deltamethrin alone 0.88 mg/L): 11.60 days
- mortality at 0.88 µg/mL (Colorado potato beetle; [10]): 30%
- mortality at 0.88 µg/mL (Colorado potato beetle; [6]): 30%
- mortality at 0.88 µg/mL (Colorado potato beetle; [7]): 30%
- mortality at 0.88 µg/mL (Colorado potato beetle; [11]): 30%
- mortality at 0.88 µg/mL (Colorado potato beetle; 216 h, read-out: % Mortality (9DAT)): 30%
- LT50 (95% confidence intervals) (diamondback moth [2]; deltamethrin 0.29 mg/L, O43NEW filtrate 1%, alone or combined): 11.58 days
- LT50 (95% confidence intervals) (diamondback moth [2]; deltamethrin […], O333A4 filtrate 1%, alone or combined): 12.78 days
- LT50 Chem. (diamondback moth [2]; Diamondback moth, deltamethrin 0.29 mg/L): 11.58 days
- % Mort. Chem. (diamondback moth [2]; Diamondback moth, deltamethrin 0.29 mg/L, 4 DAT): 16%
- LT50 Chem. (diamondback moth [2]; Diamondback moth, deltamethrin […]): 12.78 days
- mortality at 0.29 µg/mL (diamondback moth [2]; 48 h, read-out: % Mortality (2DAT), 2nd instar diamondback moth, deltamethrin 0.29 mg/L, O43NEW filtrate 1%, alone or combined, 2 DAT): 0%
- mortality at 0.29 µg/mL (diamondback moth [2]; 72 h, read-out: % Mortality (3DAT), 2nd instar diamondback moth, deltamethrin 0.29 mg/L, O43NEW filtrate 1%, alone or combined, 3 DAT): 5%
- mortality at 0.29 µg/mL (diamondback moth [2]; 96 h, read-out: % Mortality (4DAT), 2nd instar diamondback moth, deltamethrin 0.29 mg/L, O43NEW filtrate 1%, alone or combined, 4 DAT): 16%
- mortality at 0.29 µg/mL (diamondback moth [2]; 168 h, read-out: % Mortality (7DAT), 2nd instar diamondback moth, deltamethrin 0.29 mg/L, O43NEW filtrate 1%, alone or combined, 7 DAT): 21%
- mortality at 0.29 µg/mL (diamondback moth [2]; 216 h, read-out: % Mortality (9DAT), 2nd instar diamondback moth, deltamethrin 0.29 mg/L, O43NEW filtrate 1%, alone or combined, 9 DAT): 25%
- LT50 (95% confidence intervals) (diamondback moth [3]; 3rd instar, deltamethrin 0.29 mg/L, isolate O43NEW 1×10^3 cfu/mL): 11.58 days
- mortality at 0.29 µg/mL (diamondback moth [3]; [10]): 0%
- mortality at 0.29 µg/mL (diamondback moth [3]; [5]): 16%
- mortality at 0.29 µg/mL (diamondback moth [3]; [11]): 21%
- mortality at 0.29 µg/mL (diamondback moth [3]; 240 h, read-out: % Mortality (10DAT)): 32%
- mortality at 0.29 µg/mL (diamondback moth [3]; 336 h, read-out: % Mortality (14DAT)): 54%
- mortality at 0.29 µg/mL (diamondback moth [3]; […], read-out: % Mortality (8DAT)): 24%
- % Mort. Chem. (diamondback moth [3]; Deltamethrin 0.29 mg/L, 8 DAT): 24%
- LT50 Chem. (diamondback moth [3]; Deltamethrin alone 0.29 mg/L): 11.58 days
- % Mortality (3DAT) (black cutworm; [12]): 5%
- % Mortality (6DAT) (black cutworm; [12]): 35%
- % Mortality (9DAT) (black cutworm; [12]): 55%
- % Mortality (10DAT) (black cutworm; [12]): 63%
- LT50 (95% confidence intervals) (black cutworm; [12]): 7.67 days
- % Mortality (3DAT) (black cutworm; [13]): 45%
- LT50 (95% confidence intervals) (black cutworm; [13]): 3.37 days
- % Mort. Chem. (black cutworm; Deltamethrin 0.175 mg/L, 6 DAT): 35%
- % Mort. Chem. (black cutworm; Deltamethrin 1.75 mg/L, 3 DAT): 45%
- LT50 Chem. (black cutworm; Deltamethrin alone 0.175 mg/L): 7.67 days
- LT50 Chem. (black cutworm; Deltamethrin alone 1.75 mg/L): 3.37 days

Molecule: CN1COCN(Cc2cnc(Cl)s2)/C1=N\[N+](=O)[O-] [Thiamethoxam]
- mortality at 150 µg/mL (diamondback moth [3]; [6]): 11%
- mortality at 150 µg/mL (diamondback moth [3]; [7]): 16%
- % Mort. Chem. (diamondback moth [3]; Thiamethoxam 150 mg/L, 6 DAT): 16%
- LT50 Chem. (diamondback moth [3]; Thiamethoxam alone 150 mg/L): 10.09 days
- LT50 (95% confidence intervals) in days (cabbage looper [4]; 3rd instar cabbage looper, thiamethoxam 150 mg/L, O43NEW undiluted filtrate, alone or combined): 6.97 (5.92-8.22) days
- LT50 Chem. (cabbage looper [4]; thiamethoxam 150 mg/L): 6.97 days
- % Mort. Chem. (cabbage looper [4]; thiamethoxam 150 mg/L, DAT column prints 62): 1.1%
